Source: publication PMC8422859, “A Novel Oral Arginase 1/2 Inhibitor Enhances the Antitumor Effect of PD-1 Inhibition in Murine Experimental Gliomas by Altering the Immunosuppressive Environment” (Frontiers in Oncology, 2021)
pIC50: −log10 of the molar value.

Legend:
[1] = tested on: T cell proliferation; parameters: method as in PMID 29254508; conditions: cited from earlier work
[2] = tested on: CT26, LLC, B16, and 4T1 tumors; parameters: method as in PMID 29254508; conditions: B16, 4T1; cited from earlier work
[3] = tested on: U87-MG glioma cells; assay: Matrigel invasion assay, U87-MG co-cultured with BV2 microglia; format: cell-based, human
Experimental: (§1) BV2 cells were plated onto a 24-well plate at the density of 4×10^4. After 24 h, the invasion assay was performed with tissue culture inserts (6.5 mm Transwell® with 8.0 µm Pore Polycarbonate Membrane Insert, Corning, NY, USA) coated with the Growth Factor Reduced Matrigel™ Matrix (BD Biosciences, San Diego. CA, USA). The Matrigel™ Matrix (50 µL of 1 mg/mL stock solution diluted in fresh DMEM) was dried under sterile conditions (37°C) for 5–6 h. The medium in BV2 cultures was replaced with fresh one 1 h before seeding glioblastoma cells onto the inserts, then LN18 and U87 glioblastoma cells were seeded at 2×10^4/insert on Matrigel-covered membranes in a serum-reduced medium (2% FBS). Untreated glioblastoma cells co-cultured with or without BV2 cells served as positive and negative controls, respectively. Cells were treated with the arginase-1 inhibitors OAT-90, OAT-1617 and OAT-1746 solved in PBS. The cultures were kept in incubator at 37°C with humidified air containing 5% CO2. After 18 h cells were fixed in ice-cold methanol and cell nuclei stained with DAPI (4′,6-Diamidino-2-Phenylindole; 1 µg/mL, Sigma). The membranes from Transwell® inserts were cut out and images were acquired using a fluorescence microscope (Leica DM4000B, 10x lens) from the 5 independent fields (bottom; top; left; right side and the middle). Numbers of invading cells were counted using the ImageJ software (NIH, Bethesda, MD, USA). All experiments were performed three times, in duplicates.

[4] = biological target: T1, recombinant human ARG2 (Homo sapiens, UniProt P78540); assay: Recombinant arginase activity assay, hARG2; format: biochemical; conditions: 1 h at 37°C, pH 7.4, 10 mM L-arginine, urea detection; read-out: Inhibition of recombinant hARG2: IC50
T1 construct: made in house; host or cells: E. coli
T1 sequence (P78540 23-354): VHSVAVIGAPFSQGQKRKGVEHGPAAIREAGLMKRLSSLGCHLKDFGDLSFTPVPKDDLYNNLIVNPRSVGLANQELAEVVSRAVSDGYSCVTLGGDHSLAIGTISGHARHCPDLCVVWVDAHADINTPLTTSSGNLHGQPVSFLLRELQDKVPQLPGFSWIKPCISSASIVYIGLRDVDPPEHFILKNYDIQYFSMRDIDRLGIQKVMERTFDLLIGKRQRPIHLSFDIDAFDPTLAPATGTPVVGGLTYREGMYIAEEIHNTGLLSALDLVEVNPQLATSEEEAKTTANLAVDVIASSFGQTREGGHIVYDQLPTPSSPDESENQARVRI
Experimental: (§2) The inhibitory activity towards hARG1 and hARG2 enzymes was assessed using recombinant enzymes biosynthesized using a prokaryotic expression system (E. coli) and purified by fast protein liquid chromatography (FPLC). Briefly, recombinant enzymes were incubated with the tested compounds for 1 h at 37°C in the reaction buffer (100 mM sodium phosphate buffer, 130 mM NaCl, 1 mg/mL BSA, pH 7.4) containing substrate (10 mM L-arginine hydrochloride) and cofactor (200 µM MnCl2). The assay is based on the detection of urea, which is generated during the conversion of L-arginine into L-ornithine catalyzed by arginases. To visualize the product, we adding a mixture of reagent A (4 mM oPA, 50 mM boric acid, 1 M sulfuric acid, 0.03% Brij-35) and reagent B (4 mM NED, 50 mM boric acid, 1 M sulfuric acid, 0.03% Brij-35) in equal proportions. The absorbance was measured at 515 nm. The urea production in the absence of any tested compound was considered as maximal enzyme activity. The absorbance in the absence of arginase (background) was considered as zero activity. Two reference compounds OAT-81 (ABH, no. 222638-65-5) and OAT-90 (2-amino-6-borono-2-(2-(3-(2,4-dichlorophenyl)propyloamino)ethyl) hexanoic acid, and two novel inhibitors OAT-1617 and OAT-1746 (the last three synthesized at OncoArendi Therapeutics) were tested. Normalized values were analyzed using GraphPad Prism 7.0 software and the IC50 values were determined.

[5] = tested on: LN18 glioma cells; assay: Matrigel invasion assay, LN18 co-cultured with BV2 microglia; format: cell-based, human; conditions: 11 µM, co-culture with BV2, 18 h
Experimental: as §1, with “After 18 h cells were fixed in ice-cold methanol and cell nuclei stained with DAPI (4′,6-Diamidino-2-Phenylindole; 1 µg/mL, Sigma).” left out, “All experiments were performed three times, in duplicates.” left out

[6] = biological target: T2, recombinant human ARG1 (Homo sapiens, UniProt P05089); assay: Recombinant arginase activity assay, hARG1; format: biochemical; conditions: 1 h at 37°C, pH 7.4, 10 mM L-arginine, urea detection; read-out: Inhibition of recombinant hARG1: IC50
T2 construct: made in house; host or cells: E. coli
T2 sequence (P05089 1-322): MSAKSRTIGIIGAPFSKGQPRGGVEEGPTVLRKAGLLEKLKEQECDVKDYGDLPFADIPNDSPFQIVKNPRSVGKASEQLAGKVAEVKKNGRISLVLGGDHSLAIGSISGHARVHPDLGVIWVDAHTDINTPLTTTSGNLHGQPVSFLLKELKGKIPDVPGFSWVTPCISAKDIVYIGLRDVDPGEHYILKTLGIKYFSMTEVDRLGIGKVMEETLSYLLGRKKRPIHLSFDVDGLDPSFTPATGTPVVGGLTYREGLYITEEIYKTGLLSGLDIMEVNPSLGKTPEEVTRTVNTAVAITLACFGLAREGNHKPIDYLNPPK
Experimental: as §2

For `C[C@H](N)C(=O)N1C[C@H](CCCB(O)O)[C@](N)(C(=O)O)C1` [CB-1158], the “myeloid cell-mediated suppression of T cell proliferation in vitro” value [1] is given as “blocked” and the “tumor growth in mouse models of non-CNS tumors” value [2] is given as “reduced tumor growth”.

With `NC(CCCCB(O)O)(CCNCCCc1ccc(Cl)cc1Cl)C(=O)O` (stereo not drawn) [OAT-90, 2-amino-6-borono-2-(2-(3-(2,4-dichlorophenyl)propyloamino)ethyl) hexanoic acid, reference compound] the “microglia-induced invasion of U87-MG cells” value ([3]; 11 µM, co-culture with BV2, 18 h) was “effectively reduced glioma invasion”, the “concentration dependence of the inhibitory effect on glioma invasion” value ([3]; 0.1 and 11 µM, U87-MG with BV2) was “this dependence was not observed” and the pIC50 [4] was 6.10. For the same compound, the “microglia-induced invasion of LN18 cells” value [5] was “effectively reduced glioma invasion” and the pIC50 [6] was 6.82.

Compound `N[C@@H](CCCCB(O)O)C(=O)O` [Ref.comp. 1, ABH] has a pIC50 [4] of 5.57 and a pIC50 [6] of 5.96.
